Experimental data from patent US8921365B2, “Pharmaceutical composition, substrate comprising a pharmaceutical composition, and use of a pharmaceutical composition” (priority 2007, dated 2014).
Like-named read-outs stand apart in the source and are kept apart here.

Key:
S. aureus = conditions: drug concentration-dependent; cited from earlier work
S. aureus ATTC 6538P [1] = assay: Extracellular infection of osteoblastic MG63 cells, CFU in cell culture supernatant; type: cell-based, Staphylococcus aureus; conditions: 24 h; 100 μg/ml gentamicin, 1 μg/ml rifampin, 100 μg/ml fosfomycin disodium, alone or combined with rifampin; FIG. 1
Method: (§1) Osteoblastic MG63 cells were detached with the cell detachment medium Accutase 24 hours before infection. The cell number was determined using the Neubauer counting chamber. Cells were seeded onto uncoated 24 well plates with a cell density of 1.5×10^4 cells/cm^2 in 1 ml DMEM (Dulbecco's Modified Eagle's Medium) with 10% FCS (fetal calf serum), 1% Glutamax-I and 1% Natrium Pyruvat and incubated at 37° C. and 5% CO2.
The cell culture supernatant of the osteoblastic MG63 cells was removed with a pipette from the wells. 1 ml containing 1×10^6 S. aureus ATTC 6538P cells was added to each well. Two 24 well plates were incubated with S. aureus ATTC 6538P. The combined osteoblastic cells and bacteria were incubated for 1.5 h at 37° C. under 5% CO2 atmosphere. The presence of bacteria was determined using a microscope.
After 1.5 h the supernatant was removed and the wells were carefully washed twice with 37° C. warm DMEM without additives. It was microscopically checked, if not too many cells were detached during the washing procedure.
After incubation for 24 h, 100 μl of the cell culture supernatant was streaked out on Caso agar plates (Casein-peptone soymeal-peptone broth) directly, e.g. in case of rifampin, fosfomycin, rifampin/fosfomycin and rifmpicin/gentamicin, or after appropriate dilution, e.g. 1:100 in case of gentamicin, and incubated overnight at 37° C. […]

[2] = in vivo; cited from earlier work
S. aureus BAA44 [3] = assay: Extracellular infection of osteoblastic MG63 cells, CFU in cell culture supernatant; type: cell-based, Staphylococcus aureus; conditions: 24 h; 100 μg/ml vancomycin, 10 μg/ml rifampin, 100 μg/ml fosfomycin, alone or combined with rifampin; rifampin resistant MRSA strain; FIG. 2
Method: Following antibiotics were used: • 100 μg/ml vancomycin • 10 μg/ml rifampin • 100 μg/ml fosfomycin • 10 μg/ml rifampin+100 μg/ml fosfomycin • 10 μg/ml rifampin+100 μg/ml vancomycin.
After incubation for 24 h 100 μl of the cell culture were streaked out on Caso agar plates (Casein-peptone soymeal-peptone broth) directly, e.g. in case of vancomycin, rifampin/fosfomycin and rifampin/vancomycin, or after appropriate dilution, e.g. 1:100 in case of rifampin and fosfomycin, and incubated overnight at 37° C. The supernatant of two wells per group was streaked out.

[4] = system: S. aureus ATTC 6538P in osteoblastic MG63 cells; assay: Intracellular infection of osteoblastic MG63 cells after lysostaphin, metabolic activity (MTT, absorbance 540 nm); conditions: 24 h
[5] = system: S. aureus BAA44 in osteoblastic MG63 cells; assay: Intracellular infection of osteoblastic MG63 cells after lysostaphin, cell lysis and intracellular CFU count; type: cell-based, Staphylococcus aureus; conditions: 24 h; fosfomycin 50-400 μg/ml, rifampin 2.5-40 μg/ml, mixtures in varying ratios; FIG. 4a-g
Method: Only one 24 well plate was handled and the other plates were stored at 4° C. in order to minimize bacterial growth in the lysate.
(§2) The lower the CFU value is the lower is the infection rate of the osteoblastic cells with S. aureus BAA44. This correlates to the efficacy of the added antibiotic.

S. aureus BAA44 [6] = assay: Acute infection of osteoblastic MG63 cells without lysostaphin, CFU per well of intracellular and adhered bacteria; type: cell-based, Staphylococcus aureus; conditions: for effect on CFU per well of intracellular and adhered S. aureus BAA44: 18 h, FIG. 6
Method: as §1
The cell culture supernatant of the osteoblastic MG63 cells was removed with a pipette from the wells. 1 ml containing 1×10^6 S. aureus BAA44 CFU was added to each well containing also antibiotics having the following compositions: • 50 μg/ml vancomycin • 2.5 μg/ml rifampin • 1.25-10 μg/ml daptomycin • and their mixtures in different ratios as given below.
The combined osteoblastic cells, bacteria, and antibiotic compositions were incubated for 18 h at 37° C. under 5% CO2 atmosphere.
Afterwards the cells were washed once with PBS pH 7.4 (phosphate buffer solution) followed by lysis with 1 ml 0.1% Triton X100 in ringer's solution. The lysates were thoroughly resuspended with a pipette. Only one 24 well plate was handled and the other plates were stored at 4° C. in order to minimize bacterial growth in the lysate.
as §2

S. aureus BAA44 [7] = assay: Bactericidal activity of coated titanium discs in Minimal Medium, CFU in supernatant and on discs; type: cell-based, Staphylococcus aureus; conditions: 15.5 h in Minimal Medium, discs washed three times
Method: The bacterial density was determined photometrically.
The Minimal Medium was used instead of Caso Bouillon to minimize the bacterial growth.
Afterwards the CFU in the supernatant as well as the adhered bacteria on the titanium discs were analysed. The supernatant was diluted 1:10 in PBS, 100 μl of the dilution were streaked out on Caso agar plates.

S. aureus BAA44 [8] = assay: Adhesion of bacteria on coated titanium discs, CFU per disc; type: cell-based, Staphylococcus aureus; conditions: 1.5 h, 200 μg/cm^2 vancomycin or 50 μg/cm^2 rifampin + 200 μg/cm^2 fosfomycin calcium, FIG. 5c
Method: The experimental set up was essentially the same as described above for S. aureus ATTC 6538P.
The coated titanium discs were washed either once or twice with 5 ml PBS before incubation with S. aureus BAA44 for 1.5 h.

S. aureus ATTC 6538P [9] = conditions: 200 μg/cm^2 vancomycin, FIG. 5a
Method: An overnight culture of S. aureus ATTC 6538P was prepared by infecting 5 ml Caso-Bouillon medium with S. aureus ATTC 6538P. The cultures were incubated with shaking (450 U/min) over night at 37° C. 100 μl of the overnight cultures were transferred into 5 ml Caso Boulillon medium and incubated for 2 h at 37° C. with shaking (450 U/min). The bacterial density was determined photometrically. The bacterial suspension was diluted 1:2 in Caso Bouillon prior measurement. A bacterial suspension with a density of 1×10^5 CFU/ml in Caso Boullion with 10% FCS was used for the adhesion experiments.
After coating the titanium discs were washed either one time or three times with PBS. The coated and uncoated titanium discs were incubated for 5 min at room temperature with 5 ml PBS. This was repeated two more times. In the third circle the titanium discs were incubated for 1 h at room temperature. Before removing the PBS solution the titanium discs were turned or swiveled in order to increase the detachment of the antibiotics. Afterwards the titanium discs were transferred into sterile 12 well plates. […]
Afterwards the bacterial suspension was removed and the discs were washed three times with 2.5 ml PBS. […] The agar plates were incubated over night at 37° C. and the next day the colonies were counted.

[10] = 2.5 μg/ml rifampin, 50 μg/ml vancomycin
[11] = 100 μg/ml vancomycin, 100 μg/ml gentamicin, 0.01-100 μg/ml rifampin, 1 μg/ml rifampin + 100 μg/ml fosfomycin or gentamicin, FIG. 3a-d

## O=C(O)c1ccccc1O [salicylic acid]
S. aureus
  maximum reduction of S. aureus virulence parameters: approximately 50%

## C[C@@H]1O[C@@H]1P(=O)(O)O [fosfomycin]
S. aureus ATTC 6538P [1]
  effect on CFU of S. aureus ATTC 6538P in cell culture supernatant: moderate
[2]
  concentrations allowing for intravenous application: 100 to 400 µg/mL
  concentrations allowing for intravenous application, preferred, in serum: 132 to 297 µg/mL
S. aureus BAA44 [3]
  effect on CFU of S. aureus BAA44 in cell culture supernatant: relatively small
[4]; 10 μg/ml fosfomycin, FIG. 3b
  metabolic activity of infected osteoblastic MG63 cells: increases the metabolic activity only slightly
[4]; 100 μg/ml fosfomycin, FIG. 3b
  metabolic activity of infected osteoblastic MG63 cells: almost doubled
[5]
  effect on CFU per well of intracellular located S. aureus BAA44: good efficacy

## CO[C@H]1/C=C/O[C@@]2(C)Oc3c(C)c(O)c4c(O)c(c(/C=N/N5CCN(C)CC5)c(O)c4c3C2=O)NC(=O)/C(C)=C\C=C\[C@H](C)[C@H](O)[C@@H](C)[C@@H](O)[C@@H](C)[C@H](OC(C)=O)[C@@H]1C [rifampin]
S. aureus ATTC 6538P [1]
  effect on CFU of S. aureus ATTC 6538P in cell culture supernatant: moderate
S. aureus BAA44 [6]; 2.5 μg rifampin, data not shown
  overgrowth of the MG63 cells with planktonic S. aureus BAA44: prevented efficacious
S. aureus BAA44 [6]; [10]
  effect on CFU per well of intracellular and adhered S. aureus BAA44: less than for vancomycin and daptomycin
S. aureus BAA44 [3]
  effect on CFU of S. aureus BAA44 in cell culture supernatant: hardly any efficacy
[4]; [11]
  metabolic activity of infected osteoblastic MG63 cells: reduce the cell death caused by S. aureus ATTC 6538P drastically
[4]; FIG. 3a
  concentration sufficient in increasing the metabolic activity: 0.006 µg/mL
[5]
  effect on CFU per well of intracellular located S. aureus BAA44: good intracellular potency

## CN[C@H](CC(C)C)C(=O)N[C@H]1C(=O)N[C@@H](CC(N)=O)C(=O)N[C@H]2C(=O)N[C@H]3C(=O)N[C@H](C(=O)N[C@H](C(=O)O)c4cc(O)cc(O)c4-c4cc3ccc4O)[C@H](O)c3ccc(c(Cl)c3)Oc3cc2cc(c3O[C@@H]2O[C@H](CO)[C@@H](O)[C@H](O)[C@H]2O[C@H]2C[C@](C)(N)[C@H](O)[C@H](C)O2)Oc2ccc(cc2Cl)[C@H]1O [vancomycin]
S. aureus BAA44 [7]
  bactericidal effect of the coating: could not exhibit any bactericidal effect
S. aureus BAA44 [7]; 200 μg/cm^2 vancomycin or 300 μg/cm^2 fosfomycin calcium + 70 μg/cm^2 rifampin, FIG. 5d
  CFU in the supernatant: reduced the bacterial growth in the cell culture supernatant compared to the uncoated control slightly
S. aureus BAA44 [7]; FIG. 5d
  CFU adhered to the titanium disc: more than 50,000 CFU
S. aureus BAA44 [6]; [10]
  effect on CFU per well of intracellular and adhered S. aureus BAA44: several hundred
[4]; [11]
  metabolic activity of infected osteoblastic MG63 cells: strongly reduced
S. aureus BAA44 [8]; discs washed once
  anti-adhesive effect, CFU per titanium disc: reduced the adhesion
S. aureus BAA44 [8]; discs washed twice
  anti-adhesive effect, CFU per titanium disc: no reduction of bacterial adhesion
S. aureus ATTC 6538P [9]; discs washed one time before 1.5 h incubation
  anti-adhesive effect, CFU per titanium disc: anti-adhesive effect after one washing step
S. aureus ATTC 6538P [9]; discs washed three times before 1.5 h incubation
  anti-adhesive effect, CFU per titanium disc: did not reveal any anti-adhesive effect

## CCCCCCCCCC(=O)N[C@@H](Cc1c[nH]c2ccccc12)C(=O)N[C@H](CC(N)=O)C(=O)N[C@@H](CC(=O)O)C(=O)N[C@@H]1C(=O)NCC(=O)N[C@@H](CCCN)C(=O)N[C@@H](CC(=O)O)C(=O)N[C@H](C)C(=O)N[C@@H](CC(=O)O)C(=O)NCC(=O)N[C@H](CO)C(=O)N[C@@H]([C@H](C)CC(=O)O)C(=O)N[C@@H](CC(=O)c2ccccc2N)C(=O)O[C@@H]1C [daptomycin]
S. aureus BAA44 [6]; 1.25 μg/ml daptomycin
  effect on CFU per well of intracellular and adhered S. aureus BAA44: good efficacy
S. aureus BAA44 [6]; 2.5 μg/ml daptomycin
  effect on CFU per well of intracellular and adhered S. aureus BAA44: good efficacy
S. aureus BAA44 [6]; 5 μg/ml daptomycin
  effect on CFU per well of intracellular and adhered S. aureus BAA44: eradicate the infection completely
S. aureus BAA44 [6]; 10 μg/ml daptomycin
  effect on CFU per well of intracellular and adhered S. aureus BAA44: eradicate the infection completely
